Experimental data taken from patent US11207301B2, “Sphingosine 1 phosphate receptor agonists for neuroprotection” (RECEPTOS LLC, priority 2017, dated 2021).
Entries after “also recorded” stand apart in the source; their conditions may differ.

Tests used:
Recombinant human MAO-A = target: T1, Recombinant human MAO-A (Homo sapiens, UniProt P21397); test: MAO-A inhibition, conversion of kynuramine to 4-hydroxyquinoline; format: biochemical; settings: tested up to 100 μM
T1 construct: purchased Sigma-Aldrich M7316; host or cells: baculovirus infected insect cells
T1 sequence (P21397 1-527): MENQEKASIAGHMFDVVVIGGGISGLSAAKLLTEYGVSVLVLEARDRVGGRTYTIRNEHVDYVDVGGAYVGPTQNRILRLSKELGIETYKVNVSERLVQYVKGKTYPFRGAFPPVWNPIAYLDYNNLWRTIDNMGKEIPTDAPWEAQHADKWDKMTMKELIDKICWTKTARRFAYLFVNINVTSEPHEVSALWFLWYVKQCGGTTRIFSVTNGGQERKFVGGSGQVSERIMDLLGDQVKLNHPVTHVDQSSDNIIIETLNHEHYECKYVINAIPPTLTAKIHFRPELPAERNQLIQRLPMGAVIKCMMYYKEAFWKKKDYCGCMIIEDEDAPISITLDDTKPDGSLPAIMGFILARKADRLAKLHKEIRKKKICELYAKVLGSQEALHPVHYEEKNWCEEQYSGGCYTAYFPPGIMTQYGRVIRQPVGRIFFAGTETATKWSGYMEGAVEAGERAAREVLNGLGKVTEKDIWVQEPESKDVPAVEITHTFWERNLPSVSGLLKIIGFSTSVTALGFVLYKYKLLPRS
Description: The effect of a S1P receptoragonist on MAO-B activity can be assessed by measuring the inhibition of conversion of substrate kynuramine to 4-hydroxyquinoline as described in Example 4.
Compound 1 and Compound 2-S were evaluated for their ability to inhibit MAO-A and MAO-B. Inhibition of the conversion of kynuramine, a substrate for MAO-A and MAO-B, to 4-hydroxyquinoline was used to assess the inhibitory potential of Compound 1 and Compound 2-S. Recombinant human MAO-A (product number M7316) and MAO-B (product number M7441) expressed in baculovirus infected insect cells were obtained from Sigma-Aldrich, Saint Louis, Mo. USA were used as a source of purified MAOs.
Recombinant MAO-A (0.01 mg/mL, final concentrations) and MAO-B (0.02 mg/mL, final concentration) were diluted to desired concentrations in 100 mM potassium phosphate buffer (pH 7.4) containing 5 mM MgCl2. The diluted protein fractions were preincubated with various concentrations of each test compound at 37° C. for 2 min. The concentrations used were 100, 33, 10, 3.3, 1.0, 0.33 μM and acetonitrile/DMSO as vehicle control for MAO-A and 1.0, 0.3, 0.1, 0.03, 0.01, 0.003 μM and acetonitrile/DMSO as vehicle control for MAO-B. The reaction was started by addition of kynuramine to the incubation mixture. The final concentration of kynuramine was 40 μM for MAO-A and 25 μM for MAO-B. The total incubation volume was 0.250 mL. […] The reaction product, 4-hydroxyquinoline was analyzed by LC-MS/MS as described below. […]
The gradient system was used to separate the analytes with a flow rate of 0.5 ml/min using mobile phase A, water containing 0.1% formic acid and mobile phase B, acetonitrile containing 0.1% formic acid. […] The analytes were monitored using multiple reaction monitoring and the ion transitions (Q1/Q3) were as follows: 4-hydroxyquinoline 146/104 (collision energy, CE was 27; declustering potential, DP, 50, and IS (acetaminophen), 152/110 (collision energy, CE was 27; declustering potential, DP, 50). All data were analyzed using AB Sciex Analyst v1.6.2 software.

[1] = system: relapsing multiple sclerosis (RMS) patients; test: Brain volume loss in phase 3 RMS studies SUNBEAM and RADIANCE Part B vs interferon beta-1a; format: in vivo, human
Text: As mentioned above, ozanimod is in clinical development for treatment of relapsing multiple sclerosis (RMS). Brain volume loss (BVL) correlates with and predicts disability and is thought to be a marker of long-term disease progression and cognitive impairment. Accordingly, reducing BVL is an important treatment goal. In this example, BVL results are reported from two similarly-designed phase 3 RMS studies.
SUNBEAM (N=1346) and RADIANCE Part B (N=1320) were randomised, double-blind, double-dummy, active-controlled, parallel-group studies of the efficacy (primary outcome annualised relapse rate) and safety of once-daily ozanimod 1 mg or 0.5 mg vs intramuscular interferon beta-1a (IFNβ-1a) 30 μg for ≥12 months (m) (SUNBEAM) or 24 m (RADIANCE). BVL was evaluated using the Jacobian integration method to assess changes in normalised whole brain, cortical grey matter, and thalamic volumes. Rank analysis of covariance was performed with treatment effects reported as percent reductions in median percent BVL from baseline.

[2] = RADIANCE (24 m), 1 mg once daily, p<0.0001
[3] = SUNBEAM (12 m), 1 mg once daily, p<0.0001

Structure (SMILES) | MAO-A inhibition (in words) (Recombinant human MAO-A) | slowing of cortical grey matter loss with respect to IFN ([1]; RADIANCE (24 m), 0.5 mg once daily, p<0.0001) [%] | slowing of whole BVL vs IFN ([1]; RADIANCE (24 m), 0.5 mg once daily, p=0.0001) [%] | slowing of thalamic BVL vs IFN ([1]; RADIANCE (24 m), 0.5 mg once daily, p=0.0008) [%] | slowing of cortical grey matter loss with respect to IFN [1, 2] [%] | slowing of thalamic BVL vs IFN [1, 2] [%] | slowing of whole BVL vs IFN [1, 2] [%] | slowing of cortical grey matter loss with respect to IFN ([1]; SUNBEAM (12 m), 0.5 mg once daily, p<0.0001) [%] | slowing of thalamic BVL vs IFN ([1]; SUNBEAM (12 m), 0.5 mg once daily, p=0.0001) [%] | slowing of whole BVL vs IFN ([1]; SUNBEAM (12 m), 0.5 mg once daily, p=0.0615) [%] | slowing of cortical grey matter loss with respect to IFN [1, 3] [%] | slowing of thalamic BVL vs IFN [1, 3] [%] | slowing of whole BVL vs IFN [1, 3] [%]
CC(C)Oc1ccc(-c2nc(-c3cccc4c3CCC4=O)no2)cc1C#N [Compound 1, 2-isopropoxy-5-(3-(1-oxo-2,3-dihydro-1H-inden-4-yl)-1,2,4-oxadiazol-5-yl)benzonitrile] | not an inhibitor; also recorded: does not inhibit |  |  |  |  |  |  |  |  |  |  |  | 
CC(C)Oc1ccc(-c2nc(-c3cccc4c3CC[C@@H]4NCCO)no2)cc1C#N [Ozanimod] |  | 55.1 | 24.5 | 30.1 | 58.3 | 31.9 | 26.6 | 61.4 | 34.3 | 12.3 | 83.8 | 38.5 | 32.5
